Test results from US20060094674A1, “Combination of mtor inhibitor and a tyrosine kinase inhibitor for the treatment of neoplasms” (priority 2002, published 2006).
Read-outs that look alike come from different tables or passages of the source.

Legend:
[1] = test system: Ba/F-FLT3-ITD F691I cells; settings: 48 hours; PKC412 10 nM alone; two-drug combinations at indicated concentrations
Description: (§3) Cell proliferation was measured by a [^3H]-thymidine incorporation assay (see FIG. 6C).

Ba/F-BCR/ABL T315I cells = assay: [3H]-thymidine proliferation assay, Imatinib-resistant Ba/F-BCR/ABL T315I cells; settings: 48 hours
[2] = test system: BCR/ABL-transformed primary B-lymphoblast cells; settings: 24 hours, Imatinib 1 μM, Rapamycin 10 nM; for % of viable cells in phase: G1 / % of viable cells in phase: G2/M / % of viable cells in phase: S / Total % Apoptotic: UO126 5 μM; for Total % Apoptotic: sub-G1 DNA content
Description: For cell cycle and apoptosis assays, live cells from randomly growing BCR/ABL-transformed B-lymphoblasts were isolated using Histopaque (Sigma). After washing twice, the cells were resuspended in regular growth medium (RPMI-containing 20% FCS and 50 μM 2-mercaptoethanol), exposed to inhibitors at the indicated concentrations for 24 hours, harvested and fixed in 70% ethanol, for 3 hours at −20 C. Fixed cells were stained with propidium iodide, and cell cycle parameters were analyzed by using FACScan and Modfit LT software.
3 million cells in media as described above and treated with the indicated drugs or left untreated for 24 hours, were fixed, stained with propidium iodide and subject to flow cytometry for cell cycle analysis.

[3] = test system: bone marrow cells transduced with BCR/ABL-expressing retroviruses; assay: BCR/ABL-evoked myeloid colony formation assay; format: cell-based, mice; settings: rapamycin 2 nM, Imatinib 0.5 μM, UO126 2 μM alone, or all three combined; 10 days
p70 S6K [4] = test system: p70 S6K
Description: (§1) Cells were lysed in a buffer containing Tris-HCl (50 mM, pH 8.0), NaCl (150 mM), NP40 (1% v/v), NaF (10 mM), 2 mM sodium orthovanadate and a cocktail of protease inhibitors, as described previously (Gu et al., Mol. Cell. Biol. 20:7109 (2000)). Cell lysates containing equivalent amounts of protein ([…]) were loaded and separated by SDS-PAGE. Immunoblotting was performed using phospho-specific antibodies reactive with Thr389 of p70 S6K, Ser65 of 4E-BP1 or Thr202/Tyr204 of p44/42 Erk (Cell Signaling Technology, Beverly, Ma.). Detection was by enhanced chemiluminescence (ECL). To control for equal loading, blots were reprobed with antibodies that detect total Erk2 or p70 S6K (Santa Cruz Biotechnology).
(§2) Cell lysates were prepared and equal amounts (50 μg) of protein were resolved by SDS-PAGE followed by immunoblot analysis with the indicated phospho-specific antibodies. To control for loading, the blots were stripped and reprobed with anti-Erk2 antibodies.

[5] = test system: PTEN-positive human prostate cancer cells (CWR22); assay: Proliferation (cell number, hemocytometer) of CWR22 cells; format: cell-based; settings: rapamycin at indicated concentrations alone or with Imatinib 2 μg/ml; 7 days
Description: PTEN-positive human prostate cancer cells (CWR22) were seeded at 30,000 cells per 6-well cluster (35 mm plate). […] Media was changed every 2 days with fresh drugs. After 7 days, cell number was determined by hemocytometer (see FIG. 9).

[6] = achieved in transplant patients; cited from earlier work
4E-BP1 [7] = assay: Immunoblot of 4E-BP1 phosphorylation in Ba/F-FLT3-ITD cells; format: cell-based
Description: as §1
The blots were reprobed for p70 S6 kinase and Erk2, respectively, to ensure equivalent loading.

[8] = test system: PTEN-negative human prostate cancer cells (LnCaP); assay: Proliferation (cell number, hemocytometer) of LnCaP cells; format: cell-based; settings: rapamycin at indicated concentrations alone or with Imatinib 2 μg/ml; 7 days
Description: PTEN-negative human prostate cancer cells (LnCaP) were seeded at 30,000 cells per 6-well cluster (35 mm plate). […] Media was changed every 2 days with fresh drugs. After 7 days, cell number was determined by hemocytometer (see FIG. 10).

[9] = test system: murine BCR/ABL disease model; assay: Survival in mouse model of CML (BCR/ABL bone marrow transplantation); format: in vivo, BALB/C mice
Description: BALB/C donor mice were primed with intraperitoneal injection of 5′ fluorouracil (150 mg/kg). After 5 days, bone marrow cells were collected and transduced with MSCV p210 (BCR/ABL)-IRES-GFP viruses by two rounds of spinfection. After second round of transduction, cells were resuspended in Hanks balanced salt solution and injected (1×10^6 cells/0.5 ml) into the lateral tail vein of lethally irradiated (2×450 cGy) female recipient BALB/C mice. […] All animals in the trial received two gavage treatments and one IP treatment per 24 hours. Treatment was started from day 9 after bone marrow transplantation (BMT) and continued until the mice died. The log rank statistics were used to attach a significance level to the difference in the survival curves.
These mice were censored from the statistical analysis of survival. Peripheral blood was collected from the retroorbital cavity using a heparinized glass capillary. Blood smears were stained with Wright and Giemsa. Manual and automated (ADIVA 120 Hematology system, Bayer) total and differential blood cell counts were performed, as well as histopathologic exam of relevant organs (spleen, liver, heart, lungs, intestine, hindlimb bones, and kidneys). […]

Erk1/2 kinases [10] = settings: 18 hours; indicated concentrations
Description: as §1, §2

Erk1/2 kinases [11] = settings: 18 hours; indicated concentrations; remark: listed apart in the source
Description: as §1, §2

p70 S6K [12] = settings: rapamycin 0.5-5 nM; 18 hours
Description: as §1, §2

Ba/F-BCR/ABL WT cells = settings: rapamycin 5 nM; 48 hours of exposure
4E-BP1 [13] = settings: Imatinib 0.5-4 μM or rapamycin 5 nM alone, or combined
Description: as §1

K562 cells = assay: [3H]-thymidine proliferation assay, K562 cells; format: cell-based, human; settings: rapamycin alone, 5 nM; 60 hours
[14] = test system: Ba/F-FLT3-ITD F691I cells
Description: as §3

[15] = test system: BCR/ABL-transformed primary B lymphoblasts; settings: 24 hours; rapamycin 0.25-10 nM alone; Imatinib 0.25-4 μM alone or in combination with rapamycin 2 nM

CO[C@@H]1[C@H](N(C)C(=O)c2ccccc2)C[C@H]2O[C@]1(C)n1c3ccccc3c3c4c(c5c6ccccc6n2c5c31)C(=O)NC4 [PKC412]
effect on cell proliferation [1]: almost no effect

N#CC(=C(/N)Sc1ccccc1N)/C(C#N)=C(/N)Sc1ccccc1N [UO126]
inhibition of proliferation (Ba/F-BCR/ABL T315I cells; UO126 5 μM, Imatinib 0.5 μM, rapamycin 5 nM, alone or in combinations): only modest inhibitory effects | % of viable cells in phase: G1 [2]: 44.6% | % of viable cells in phase: G2/M [2]: 3.8% | % of viable cells in phase: S [2]: 51.6% | Total % Apoptotic [2]: 4.6% | inhibition of BCR/ABL-evoked myeloid colony formation [3]: 16%

Rapamycin
inhibition of proliferation (Ba/F-BCR/ABL T315I cells; rapamycin 5 nM alone): about 70% | inhibition of p70 S6K phosphorylation (p70 S6K [4]; rapamycin 5 nM): totally inhibited p70 S6K phosphorylation | inhibition of p70 S6K activation (p70 S6K [4]; rapamycin 0.5-5 nM, 18 hours): almost completely inhibited activation of p70 S6K | inhibitory effect on proliferation of prostate cancer cells [5]: significant inhibitory effect on proliferation | typical serum levels [6]: 5 to 15 nM | resistance of 4E-BP1 phosphorylation to rapamycin relative to p70 S6K (4E-BP1 [7]): > 10 fold | inhibitory effect on proliferation of prostate cancer cells [8]: significant inhibitory effect on proliferation | survival versus double placebo, p (log rank) ([9]; Rapamycin 7.0 mg/kg/day intraperitoneal or Imatinib 70 mg/kg/day oral gavage, each plus placebo): 0.04 | survival ([9]; Rapamycin 7.0 mg/kg/day intraperitoneal, Imatinib 70 mg/kg/day oral gavage, from day 9 after BMT): survived longer than those treated with double placebo | inhibition of Erk activation (Erk1/2 kinases [10]): did not inhibit Erk activation | inhibition of Erk activation (Erk1/2 kinases [11]): did not inhibit Erk activation | inhibition of p70 S6K activation (p70 S6K [12]): almost completely inhibited activation of p70 S6K | inhibition of proliferation (Ba/F-BCR/ABL WT cells): ~60% | inhibition of 4E-BP1 phosphorylation (4E-BP1 [13]): partial inhibition of 4E-BP1phosphorylation | inhibition of [3H]-thymidine incorporation (K562 cells): ~25% | % of viable cells in phase: G1 [2]: 79.9% | % of viable cells in phase: G2/M [2]: 1.8% | % of viable cells in phase: S [2]: 18.3% | Total % Apoptotic [2]: 8.6% | effect on cell cycle and apoptosis ([2]; alone or combined): G1 arrest, but no significant apoptosis | inhibition [14]: 68% | inhibition of cell proliferation ([3H]-thymidine incorporation) [15]: inhibited the proliferation of these cells at doses significantly below typical serum levels
